Like-named read-outs stand apart in the source and are kept apart here.
Biological target: T1, Akt1 (Homo sapiens, UniProt P31749, S473D)
T1 construct: The version of Akt used in these studies lacks the pleckstrin homology (PH) domain
Experiment: Akt1 kinase assay, fluorescence polarization (IMAP)
Assay type: biochemical
Method in brief: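 His-tagged Akt1 lacking the PH domain, Thr308-prephosphorylated, 1.5 ng per reaction, with 4 μM ATP and 40 nM TAMRA-Crosstide (solution concentrations) in Tris pH 7.5/MgCl2/DTT buffer. Incubated 30 min at ambient temperature; IMAP fluorescence polarization read (544/615 nm). IC50 after subtraction of no-enzyme background.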

[1] = Table 1, concentration bins, read-out: Concentration Range at which exemplary compounds of formula I inhibit Akt kinase activity
[2] = Table 3, read-out: Avg Akt kinase, μM (50% inhibition)
[3] = average Akt kinase activity (IC50), read-out: Avg Akt kinase, μM (50% inhibition)
[4] = read-out: Avg Akt kinase, μM (50% inhibition)

T1 sequence (P31749 118-480 S473D limits assumed, species assumed): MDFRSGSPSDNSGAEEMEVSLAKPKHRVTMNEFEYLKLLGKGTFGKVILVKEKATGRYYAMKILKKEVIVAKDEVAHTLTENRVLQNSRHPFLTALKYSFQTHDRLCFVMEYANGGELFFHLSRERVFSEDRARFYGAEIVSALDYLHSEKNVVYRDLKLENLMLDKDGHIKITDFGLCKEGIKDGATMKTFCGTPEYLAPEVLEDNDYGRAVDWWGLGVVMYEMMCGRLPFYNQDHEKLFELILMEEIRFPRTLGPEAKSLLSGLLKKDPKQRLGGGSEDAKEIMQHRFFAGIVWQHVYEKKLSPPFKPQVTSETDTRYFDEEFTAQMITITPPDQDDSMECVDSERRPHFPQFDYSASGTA

Compound	IC50 [1]	IC50 [2]	IC50 [3]	IC50 (Table 4, read-out: Avg Akt kinase, μM (50% inhibition))	IC50 [4]
N#Cc1n[nH]c2ncnc(N3CCC(N)(CNc4cccc(Cl)c4F)C3)c12 (stereo not drawn) [Example 7, 4-(3-amino-3-((3-chloro-2-fluorophenylamino)methyl)pyrrolidin-1-yl)-1H-pyrazolo[3,4-d]pyrimidine-3-carbonitrile]	0.0101 to 0.1 µM	0.0523 µM			
Cc1c[nH]c2ncnc(N3CC[C@](N)(CNC(=O)c4ccc(Cl)cc4)C3)c12 [Example 74, (S)—N-((3-amino-1-(5-methyl-7H-pyrrolo[2,3-d]pyrimidin-4-yl)pyrrolidin-3-yl)methyl)-4-chlorobenzamide]	0.0101 to 0.1 µM		0.0114 µM		
Cc1n[nH]c2ncnc(N3CCC(N)(CNc4cccc(Cl)c4F)C3)c12 (stereo not drawn) [Example 41, 3-{[(3-chloro-2-fluorophenyl)amino]methyl}-1-(3-methyl-1H-pyrazolo[3,4-d]pyrimidin-4-yl)pyrrolidin-3-amine]	0.0101 to 0.1 µM	0.0134 µM			
N[C@]1(CNC(=O)c2ccccc2)CCN(c2ncnc3[nH]cc(Cl)c23)C1 [Example 108, N-{[(3S)-3-amino-1-(5-chloro-7H-pyrrolo[2,3-d]pyrimidin-4-yl)pyrrolidin-3-yl]methyl}benzamide]	0.00251 to 0.01 µM		0.00251 µM		
NC1(CNc2cccc(Oc3ccccc3)c2)CCN(c2ncnc3[nH]cc(Cl)c23)C1 (stereo not drawn) [Example 6, 1-(5-Chloro-7H-pyrrolo[2,3-d]pyrimidin-4-yl)-3-[(3-phenoxy-phenylamino)-methyl]-pyrrolidin-3-ylamine]	0.0101 to 0.1 µM	0.0134 µM			
Cc1c[nH]c2ncnc(N3CC[C@](N)(CNC4=NC(=O)CC=C4)C3)c12 [Example 56, 6-({[(3S)-3-amino-1-(5-methyl-7H-pyrrolo[2,3-d]pyrimidin-4-yl)pyrrolidin-3-yl]methyl}amino)pyridin-2(3H)-one]	0.0101 to 0.1 µM	0.014 µM			
Cc1c[nH]c2ncnc(N3CC[C@](N)(CNC(=O)c4cccc(Cl)c4)C3)c12 [Example 115]	0.00251 to 0.01 µM		0.00998 µM		
CCc1c[nH]c2ncnc(N3CC[C@](N)(CNC(=O)c4ccc(Cl)cc4)C3)c12 [Example 88]	0.00025 to 0.0025 µM		0.0018 µM		
Cc1ccccc1C(=O)NC[C@@]1(N)CCN(c2ncnc3[nH]cc(Cl)c23)C1 [Example 131]	0.00251 to 0.01 µM		0.01 µM		
N[C@]1(CNC(=O)c2cccc(F)c2F)CCN(c2ncnc3[nH]cc(Cl)c23)C1 [Example 81, N-{[(3S)-3-amino-1-(5-chloro-7H-pyrrolo[2,3-d]pyrimidin-4-yl)pyrrolidin-3-yl]methyl}-2,3-difluorobenzamide]	0.00251 to 0.01 µM		0.00346 µM		
Cc1c[nH]c2ncnc(N3CCC(N)(CSc4cccc(C(F)(F)F)c4)C3)c12 (stereo not drawn) [Example 66, 1-(5-methyl-7H-pyrrolo[2,3-d]pyrimidin-4-yl)-3-((3-(trifluoromethyl)phenylthio)methyl) -pyrrolidin-3-amine]	0.101 to 10 µM		0.701 µM		
Cc1c[nH]c2ncnc(N3CCC(N)(CNCC4CC4)C3)c12 (stereo not drawn) [Example 54, 3-{[(cyclopropylmethyl)amino]methyl}-1-(5-methyl-7H-pyrrolo[2,3-d]pyrimidin-4-yl)pyrrolidin-3-amine]	0.101 to 10 µM	0.739 µM			
N#Cc1c[nH]c2ncnc(N3CC[C@](N)(CNC(=O)c4cccc(F)c4F)C3)c12 [Example 90]	0.0101 to 0.1 µM		0.0395 µM		
Cc1c[nH]c2ncnc(N3CCC(N)(CNc4ccc(C#N)c(Cl)c4)C3)c12 (stereo not drawn) [Example 22, 4-({[3-amino-1-(5-methyl-7H-pyrrolo[2,3-d]pyrimidin-4-yl)pyrrolidin-3-yl]methyl}amino)-2-chlorobenzonitrile]	0.0101 to 0.1 µM	0.0161 µM			
N-{[3-amino-1-(1H-pyrrolo[2,3-b]pyridin-4-yl)pyrrolidin-3-yl]methyl}-5-chloropyrimidin-2-amine [Example 59]		0.0035 µM			
CCc1c[nH]c2ncnc(N3CCC(N)(COc4cccc(C)c4)C3)c12 (stereo not drawn) [Example 65, 1-(5-ethyl-7H-pyrrolo[2,3-d]pyrimidin-4-yl)-3-[(3-methylphenoxy)methyl]pyrrolidin-3-amine]	0.0101 to 0.1 µM			0.0948 µM	
Cc1c[nH]c2ncnc(N3CCC(N)(CN(C)C(=O)c4ccc(Cl)cc4)C3)c12 (stereo not drawn) [Example 196, N-((3-amino-1-(5-methyl-7H-pyrrolo[2,3-d]pyrimidin-4-yl)pyrrolidin-3-yl)methyl)-4-chloro-N-methylbenzamide]	0.101 to 10 µM				0.123 µM
N[C@]1(CNC(=O)c2cc(F)ccc2F)CCN(c2ncnc3[nH]cc(Cl)c23)C1 [Example 106, N-{[(3S)-3-amino-1-(5-chloro-7H-pyrrolo[2,3-d]pyrimidin-4-yl)pyrrolidin-3-yl]methyl}-2,5-difluorobenzamide]	0.00025 to 0.0025 µM		0.0025 µM		

Compound	IC50 [1]	IC50 [2]	IC50 [3]	IC50 (Table 4, read-out: Avg Akt kinase, μM (50% inhibition))	IC50 [4]
N[C@]1(CNC(=O)c2cccc(F)c2)CCN(c2ncnc3[nH]cc(Cl)c23)C1 [Example 104, N-{[(3S)-3-amino-1-(5-chloro-7H-pyrrolo[2,3-d]pyrimidin-4-yl)pyrrolidin-3-yl]methyl}-3-fluorobenzamide]	0.00251 to 0.01 µM		0.00674 µM		
Cc1c[nH]c2ncnc(N3CC[C@](N)(CNC(=O)c4cccc(F)c4F)C3)c12 [Example 87]	0.00251 to 0.01 µM		0.00758 µM		
Cc1c[nH]c2ncnc(N3CCC(N)(CNc4ccc(CC(N)=O)cc4)C3)c12 (stereo not drawn) [Example 16, 2-[4-({[3-amino-1-(5-methyl-7H-pyrrolo[2,3-d]pyrimidin-4-yl)pyrrolidin-3-yl]methyl}amino)phenyl]-acetamide]	0.0101 to 0.1 µM	0.0143 µM			
Cc1c[nH]c2ncnc(N3CC[C@](N)(CNC(=O)c4cccc(F)c4Cl)C3)c12 [Example 123, N-{[(3S)-3-amino-1-(5-methyl-7H-pyrrolo[2,3-d]pyrimidin-4-yl)pyrrolidin-3-yl]methyl}-2-chloro-3-fluorobenzamide]	0.00251 to 0.01 µM		0.00526 µM		
Cc1cc(CNC[C@@]2(N)CCN(c3ncnc4[nH]cc(C)c34)C2)no1 [Example 53, (3S)-3-({[(5-methylisoxazol-3-yl)methyl]amino}methyl)-1-(5-methyl-7H-pyrrolo[2,3-d]pyrimidin-4-yl)pyrrolidin-3-amine]	0.0101 to 0.1 µM	0.0293 µM			
Cc1c[nH]c2ncnc(N3CCC(N)(CNc4cccc(Cl)c4F)C3)c12 (stereo not drawn) [Example 21, 3-{[(3-chloro-2-fluorophenyl)amino]methyl}-1-(5-methyl-7H-pyrrolo[2,3-d]pyrimidin-4-yl)pyrrolidin-3-amine]	0.00251 to 0.01 µM	0.00553 µM			
N#Cc1c[nH]c2ncnc(N3CCC(N)(CNc4cccc(C(F)(F)F)c4F)C3)c12 (stereo not drawn) [Example 40, 4-[3-amino-3-({[2-fluoro-3-(trifluoromethyl)phenyl]amino}-methyl)pyrrolidin-1-yl]-7H-pyrrolo[2,3-d]pyrimidine-5-carbonitrile]	0.00251 to 0.01 µM	0.00807 µM			
Cc1c[nH]c2ncnc(N3CCC(N)(CCc4cccc(C(F)(F)F)c4)C3)c12 (stereo not drawn) [Example 67, 1-(5-methyl-7H-pyrrolo[2,3-d]pyrimidin-4-yl)-3-{2-[3-(trifluoromethyl) -phenyl]ethyl}pyrrolidin-3-amine]	0.101 to 10 µM		0.126 µM		
N#Cc1n[nH]c2ncnc(N3CCC(N)(CNc4cccc(Cl)c4)C3)c12 (stereo not drawn) [Example 8, 4-{3-Amino-3-[(3-chloro-phenylamino)-methyl]-pyrrolidin-1-yl}-1H-pyrazolo[3,4-d]pyrimidine-3-carbonitrile]	0.101 to 10 µM	0.249 µM			
CCc1c[nH]c2ncnc(N3CC[C@](N)(CNC(=O)c4ccc(F)cc4)C3)c12 [Example 93]	0.00025 to 0.0025 µM		0.00191 µM		
Cc1c[nH]c2ncnc(N3CC[C@](N)(CNC(=O)c4cc(F)ccc4F)C3)c12 [Example 101, N-{[(3S)-3-amino-1-(5-methyl-7H-pyrrolo[2,3-d]pyrimidin-4-yl)pyrrolidin-3-yl]methyl}-2,5-difluorobenzamide]	0.0101 to 0.1 µM		0.015 µM		
CCc1c[nH]c2ncnc(N3CC[C@](N)(CNC(=O)c4cccc(F)c4)C3)c12 [Example 105, N-{[(3S)-3-amino-1-(5-ethyl-7H-pyrrolo[2,3-d]pyrimidin-4-yl)pyrrolidin-3-yl]methyl}-3-fluorobenzamide]	0.0101 to 0.1 µM		0.0107 µM		
NC1(CNc2cccc(C(F)(F)F)c2)CCN(c2ncnc3[nH]cnc23)C1 (stereo not drawn) [Example 14, 1-(9H-purin-6-yl)-3-({[3-(trifluoromethyl)phenyl]amino}-methyl)pyrrolidin-3-amine]	0.101 to 10 µM	0.108 µM			
CNC1(CNC(=O)c2ccccc2)CCN(c2ncnc3[nH]cc(Cl)c23)C1 (stereo not drawn) [Example 194]	0.0101 to 0.1 µM				0.0897 µM
Cc1c(Cl)cccc1NCC1(N)CCN(c2ncnc3[nH]cc(Cl)c23)C1 (stereo not drawn) [Example 43, 3-{[(3-chloro-2-methylphenyl)amino]methyl}-1-(5-chloro-7H-pyrrolo[2,3-d]pyrimidin-4-yl)pyrrolidin-3-amine]	0.00025 to 0.0025 µM	0.002 µM			
Cc1c[nH]c2ncnc(N3CCC(N)(CN(CCN(C)C)Cc4ccccc4)C3)c12 (stereo not drawn) [Example 47, N-{[3-amino-1-(5-methyl-7H-pyrrolo[2,3-d]pyrimidin-4-yl)pyrrolidin-3-yl]methyl}-N-benzyl-N′,N′-dimethylethane-1,2-diamine]	0.101 to 10 µM	0.172 µM			
Cc1c[nH]c2ncnc(N3CC[C@](N)(CNC(=O)c4ccc(F)cc4F)C3)c12 [Example 97, N-{[(3S)-3-amino-1-(5-methyl-7H-pyrrolo[2,3-d]pyrimidin-4-yl)pyrrolidin-3-yl]methyl}-2,4-difluorobenzamide]	0.00025 to 0.0025 µM		0.000979 µM		
